Test results reported in ChEMBL document CHEMBL5030533, “Mechanistic Investigation of Site-specific DNA Methylating Agents Targeting Breast Cancer Cells” (J Med Chem, 2021).
The source made the active and inactive calls. The rule behind the calls is not given here.

Legend:
Estrogen receptor = target: T1, Estrogen receptor (Homo sapiens, UniProt P03372); assay: Binding affinity of ERalpha LBD (unknown origin) incubated for 2 hrs by LanthaScreen TR-FRET assay
T1 sequence (P03372 whole entry): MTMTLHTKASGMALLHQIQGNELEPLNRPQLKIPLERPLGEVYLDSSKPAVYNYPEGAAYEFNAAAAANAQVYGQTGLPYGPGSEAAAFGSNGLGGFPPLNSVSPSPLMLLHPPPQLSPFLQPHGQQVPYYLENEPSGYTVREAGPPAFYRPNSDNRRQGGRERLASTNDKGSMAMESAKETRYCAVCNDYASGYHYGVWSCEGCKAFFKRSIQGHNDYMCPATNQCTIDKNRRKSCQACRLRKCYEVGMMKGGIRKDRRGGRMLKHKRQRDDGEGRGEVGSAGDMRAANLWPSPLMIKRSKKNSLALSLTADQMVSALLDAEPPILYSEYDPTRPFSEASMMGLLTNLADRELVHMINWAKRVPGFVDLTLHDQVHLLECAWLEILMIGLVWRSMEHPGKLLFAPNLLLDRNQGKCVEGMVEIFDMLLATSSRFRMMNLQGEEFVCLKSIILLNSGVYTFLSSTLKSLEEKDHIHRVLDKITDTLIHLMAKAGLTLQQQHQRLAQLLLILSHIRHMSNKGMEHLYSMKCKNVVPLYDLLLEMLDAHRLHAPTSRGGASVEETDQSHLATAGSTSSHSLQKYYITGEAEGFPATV

[1] = target: T2, Estrogen receptor (Homo sapiens) (UniProt P03372); assay: Induction of ERalpha nuclear translocation in human MCF7 cells assessed as increase in IGFBP4 mRNA expression at 0.1 to 5 nM after 24 hrs by RT-qPCR analysis; format: cell-based; conditions: dose 0.1-5 nM
T2 sequence (whole entry): T1 sequence (P03372 whole entry)

[2] = target: T2, Estrogen receptor (Homo sapiens); assay: Induction of ERalpha nuclear translocation in human MCF7 cells assessed as increase in TFF1 mRNA expression at 0.1 to 5 nM after 24 hrs by RT-qPCR analysis; format: cell-based; conditions: dose 0.1-5 nM
[3] = target: T2, Estrogen receptor (Homo sapiens); assay: Induction of ERalpha nuclear translocation in human MCF7 cells assessed as increase in RasGRP1 mRNA expression at 0.1 to 5 nM after 24 hrs by RT-qPCR analysis; format: cell-based; conditions: dose 0.1-5 nM
[4] = target: T2, Estrogen receptor (Homo sapiens); assay: Induction of ERalpha nuclear translocation in human MCF7 cells assessed as increase in LRP2 mRNA expression at 0.1 to 5 nM after 24 hrs by RT-qPCR analysis; format: cell-based; conditions: dose 0.1-5 nM
[5] = target: T2, Estrogen receptor (Homo sapiens); assay: Induction of ERalpha nuclear translocation in human MCF7 cells assessed as increase in RGNEF mRNA expression at 0.1 to 5 nM after 24 hrs by RT-qPCR analysis; format: cell-based; conditions: dose 0.1-5 nM
[6] = target: T2, Estrogen receptor (Homo sapiens); assay: Induction of ERalpha nuclear translocation in human MCF7 cells assessed as increase in AGR2 mRNA expression at 0.1 to 5 nM after 24 hrs by RT-qPCR analysis; format: cell-based; conditions: dose 0.1-5 nM
[7] = target: T2, Estrogen receptor (Homo sapiens); assay: Induction of ERalpha nuclear translocation in human MCF7 cells assessed as increase in SLFN5 mRNA expression at 0.1 to 5 nM after 24 hrs by RT-qPCR analysis; format: cell-based; conditions: dose 0.1-5 nM
Calf thymus DNA [8] = assay: Displacement of ethidium bromide from calf thymus DNA assessed as relative binding by measuring molar equivalents by spectrofluorometric assay; format: nucleic-acid assay; conditions: Bos taurus
MCF7 [9] = assay: Cytotoxicity against human MCF7 cells measured after 16 hrs by MTT assay; format: functional, cell-based; conditions: MCF7, 16 h
Calf thymus DNA [10] = assay: Binding affinity to calf thymus DNA assessed as 3-MeA adduct formation at 50 uM after 24 hrs by RP-HPLC analysis; format: nucleic-acid assay; conditions: Bos taurus
Calf thymus DNA [11] = assay: Binding affinity to calf thymus DNA assessed as 7-MeG adduct formation at 25 uM after 24 hrs by RP-HPLC analysis; format: nucleic-acid assay; conditions: Bos taurus
Calf thymus DNA [12] = assay: Binding affinity to calf thymus DNA assessed as 7-MeG adduct formation at 50 uM after 24 hrs by RP-HPLC analysis; format: nucleic-acid assay; conditions: Bos taurus
Calf thymus DNA [13] = assay: Binding affinity to calf thymus DNA assessed as 7-MeG adduct formation at 100 uM after 24 hrs by RP-HPLC analysis; format: nucleic-acid assay; conditions: Bos taurus
Calf thymus DNA [14] = assay: Binding affinity to calf thymus DNA assessed as 3-MeA adduct formation at 25 uM after 24 hrs by RP-HPLC analysis relative to control; format: nucleic-acid assay; conditions: Bos taurus
Calf thymus DNA [15] = assay: Binding affinity to calf thymus DNA assessed as 3-MeA adduct formation at 50 uM after 24 hrs by RP-HPLC analysis relative to control; format: nucleic-acid assay; conditions: Bos taurus
Calf thymus DNA [16] = assay: Binding affinity to calf thymus DNA assessed as 3-MeA adduct formation at 100 uM after 24 hrs by RP-HPLC analysis relative to control; format: nucleic-acid assay; conditions: Bos taurus
Calf thymus DNA [17] = assay: Binding affinity to calf thymus DNA assessed as 3-MeA adduct formation at 100 uM after 24 hrs in presence of netropsin by RP-HPLC analysis relative to control; format: nucleic-acid assay; conditions: Bos taurus
MCF7 [18] = assay: Cytotoxicity against ER positive human MCF7 cells at 100 uM incubated for 24 hrs in presence of estradiol by MTT assay; format: functional, cell-based
Calf thymus DNA [19] = assay: Binding affinity to calf thymus DNA assessed as 7-MeG adduct formation at 100 uM after 24 hrs in presence of netropsin by RP-HPLC analysis; format: nucleic-acid assay; conditions: Bos taurus
Calf thymus DNA [20] = assay: Binding affinity to calf thymus DNA assessed as 3-MeA adduct formation at 25 uM after 24 hrs by RP-HPLC analysis; format: nucleic-acid assay; conditions: Bos taurus
Calf thymus DNA [21] = assay: Binding affinity to calf thymus DNA assessed as 3-MeA adduct formation at 100 uM for 24 hrs in presence of netropsin by RP-HPLC analysis; format: nucleic-acid assay; conditions: Bos taurus
MCF7 [22] = assay: Cytotoxicity against ER positive human MCF7 cells incubated for 24 hrs in presence of estradiol by MTT assay; format: functional, cell-based; conditions: MCF7, 24 h
MDA-MB-231 = assay: Cytotoxicity against ER negative human MDA-MB-231 cells incubated for 24 hrs in presence of estradiol by MTT assay; format: functional, cell-based; conditions: MDA-MB-231, 24 h
Calf thymus DNA [23] = assay: Binding affinity to calf thymus DNA assessed as 3-MeA adduct formation at 100 uM after 24 hrs by RP-HPLC analysis; format: nucleic-acid assay; conditions: Bos taurus
[24] = target: T2, Estrogen receptor (Homo sapiens); assay: Induction of ERalpha nuclear translocation in human MCF7 cells at 15 nM after 5 hrs by immunofluorescence assay; format: cell-based
Calf thymus DNA [25] = assay: Binding affinity to calf thymus DNA assessed as 3-MeA adduct formation at 5000 uM after 24 hrs by RP-HPLC analysis; format: nucleic-acid assay; conditions: Bos taurus
Calf thymus DNA [26] = assay: Binding affinity to calf thymus DNA assessed as 3-MeA adduct formation at 5000 uM after 24 hrs by RP-HPLC analysis relative to control; format: nucleic-acid assay; conditions: Bos taurus
Calf thymus DNA [27] = assay: Binding affinity to calf thymus DNA assessed as 3-MeA adduct formation at 5000 uM after 24 hrs in presence of netropsin by RP-HPLC analysis relative to control; format: nucleic-acid assay; conditions: Bos taurus
Calf thymus DNA [28] = assay: Binding affinity to calf thymus DNA assessed as 3-MeA adduct formation at 5000 uM after 24 hrs in presence of netropsin by RP-HPLC analysis; format: nucleic-acid assay; conditions: Bos taurus

Structure (SMILES)	Activity [1]	Activity [2]	Activity [3]	Activity [4]	Activity [5]	Activity [6]	Activity [7]	Activity (Calf thymus DNA [8])	EC50 (MCF7 [9])	Activity (Calf thymus DNA [10])	Activity (Calf thymus DNA [11])	Activity (Calf thymus DNA [12])	Activity (Calf thymus DNA [13])	Activity (Calf thymus DNA [14])	Activity (Calf thymus DNA [15])	Activity (Calf thymus DNA [16])	Activity (Calf thymus DNA [17])	Activity (Calf thymus DNA [19])	Activity (Calf thymus DNA [20])	Activity (Calf thymus DNA [21])	further results
Cn1cc(NC(=O)c2cc(NC(=O)CCS(C)(=O)=O)cn2C)cc1C(=O)NCCC(=O)NCCCCCC[C@@H]1Cc2cc(O)ccc2[C@H]2CC[C@]3(C)[C@@H](O)CC[C@H]3[C@H]12	Active	Active	Active	inactive	Active	Active	Active	2.54 Mequiv	–	–	–	–	–	–	–	–	–	–	–	–	IC50 (Estrogen receptor): 0.00148 µM
Cn1cc(NC(=O)c2cc(NC(=O)CCS(C)(=O)=O)cn2C)cc1C(=O)NCC(=O)NCCCCCC[C@@H]1Cc2cc(O)ccc2[C@H]2CC[C@]3(C)[C@@H](O)CC[C@H]3[C@H]12	Active	Active	Active	inactive	Active	Active	Active	4.35 Mequiv	122 µM	–	–	–	–	–	–	–	–	–	–	–	IC50 (Estrogen receptor): 0.00099 µM
CCCNC(=O)c1cc(NC(=O)c2cc(NC(=O)CCS(=O)(=O)OC)cn2C)cn1C	–	–	–	–	–	–	–	–	85 µM	8230 µmol	185 µmol	399 µmol	774 µmol	96%	95%	95%	95%	714 µmol	4600 µmol	–	Activity (MCF7 [18]): Active
COS(=O)(=O)CCC(=O)Nc1cc(C(=O)Nc2cc(C(=O)NCCC(=O)NCCCCCC[C@@H]3Cc4cc(O)ccc4[C@H]4CC[C@]5(C)[C@@H](O)CC[C@H]5[C@H]34)n(C)c2)n(C)c1	–	–	–	–	–	–	–	–	39.4 µM	–	93 µmol	253 µmol	495 µmol	99%	98%	97%	95%	409 µmol	6520 µmol	769 µmol	Activity (MCF7 [18]): inactive; EC50 (MCF7 [22]): 50.7 µM; EC50 (MDA-MB-231): 160 µM
COS(=O)(=O)CCC(=O)Nc1cc(C(=O)Nc2cc(C(=O)NCC(=O)NCCCCCC[C@@H]3Cc4cc(O)ccc4[C@H]4CC[C@]5(C)[C@@H](O)CC[C@H]5[C@H]34)n(C)c2)n(C)c1	–	–	–	–	–	–	–	–	142 µM	1760 µmol	194 µmol	404 µmol	404 µmol	89%	86%	83%	91%	482 µmol	1620 µmol	180 µmol	Activity (Calf thymus DNA [23]): 1920 µmol; Activity [24]: Active
COS(C)(=O)=O	–	–	–	–	–	–	–	–	–	–	–	–	–	–	–	–	–	–	–	–	Activity (Calf thymus DNA [25]): 1800 µmol; Activity (Calf thymus DNA [26]): 9%; Activity (Calf thymus DNA [27]): 31%; Activity (Calf thymus DNA [28]): 1240 µmol
COS(=O)(=O)CCC(=O)Nc1cc(C(=O)Nc2cc(C(=O)NCCCC(=O)NCCCCCC[C@@H]3Cc4cc(O)ccc4[C@H]4CC[C@]5(C)[C@@H](O)CC[C@H]5[C@H]34)n(C)c2)n(C)c1	–	–	–	–	–	–	–	–	89.5 µM	922 µmol	147 µmol	204 µmol	318 µmol	83%	82%	79%	86%	420 µmol	699 µmol	173 µmol	Activity (Calf thymus DNA [23]): 1210 µmol
Cn1cc(NC(=O)c2cc(NC(=O)CCS(C)(=O)=O)cn2C)cc1C(=O)NCCCC(=O)NCCCCCC[C@@H]1Cc2cc(O)ccc2[C@H]2CC[C@]3(C)[C@@H](O)CC[C@H]3[C@H]12	Active	Active	Active	Active	Active	Active	Active	4.43 Mequiv	146 µM	–	–	–	–	–	–	–	–	–	–	–	–
